What was measured:
Format in all cases: cell-based
[1] = tested on: Alexa Fluor647 labelled human IgE; test: Uptake assay: internalization of Alexa Fluor 647 labelled IgE in wild type HepG2 cells (Example 6); conditions: equimolar conjugate and AF647 IgE, 2 hours, median cellular AF647 intensity by flow cytometry, normalized to unconjugated parent protein
In short: (§1)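 HepG2 cells (wild type or ASGPR1/2 KO) pre-blocked with Fc receptor blocker, then exposed 2 h to conjugate precomplexed equimolar with AF647-labelled human IgE (30 min, room temperature) at 300 nM to 1.23 nM final. Median cellular AF647 by flow cytometry, normalized to unconjugated parent protein.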

[2] = tested on: Alexa Fluor647 labelled human IgE; test: Uptake assay: internalization of Alexa Fluor 647 labelled IgE in ASGPR1/2 KO HepG2 cells (Example 6); conditions: equimolar conjugate and AF647 IgE, normalized to unconjugated parent protein
In short: as §1

[3] = tested on: LysoLight-labelled human IgE; test: Lysosomal degradation of LysoLight-labelled IgE in HepG2 cells, live cell imaging (Example 7); conditions: equimolar conjugate:LysoLight IgE, area under the curve of deep red fluorescence over three days, normalized to unconjugated parent protein
In short: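 Conjugate precomplexed 30 min at room temperature with equimolar LysoLight-labelled human IgE, added to Fc-receptor-blocked HepG2 cells at final 100–1.23 nM. Red fluorescence, released on lysosomal cathepsin cleavage, imaged hourly for 72 h starting 1 h post-addition; area under the fluorescence–time curve taken as total degradation.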

HepG2 cells = test: Externalization of conjugates from a cell following internalization (cycling), high-throughput format (Example 11); conditions: 50 nM conjugate 1 hour, stringent washes, Alexa Fluor 647-labelled a-human IgG 1 hour, FACS, normalized to unconjugated parent protein, average of two replicate wells
In short: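 25,000 HepG2 cells incubated with conjugate for 1 h at indicated concentrations, then chilled and washed (DPBS, pH 5.2 acetate, pH 2.5 EBSS) to strip surface conjugate. Recycled conjugate captured by 1 μg/ml AF647 anti-human IgG in 37 °C EMEM for 1 h; median AF647 by flow cytometry, mean of two wells.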

human IgE = test: Degradation of initial and subsequent dose of target in HepG2 cells (Example 12, Table 30); conditions: normalized to unconjugated; for Normalized Fluorescence Post Wash Median Green: after wash, probe-conjugated IgE added for 4 hours, subsequent dose of target; for Normalized Fluorescence Precomplex Median Deep Red: precomplexed equimolar conjugate:IgE (cathepsin-cleavable quenched fluorescent probe) added for 2 hours, initial dose of target
In short: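 HepG2 cells exposed 2 h to conjugate precomplexed (30 min, 37 °C, equimolar) with 647-quenched-probe human IgE, acid/ice washed, then given 488-probe IgE without conjugate for 4 h. Median 647 (initial) and 488 (recycled) fluorescence by flow cytometry, normalised to unconjugated parent; mean of two wells.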

recombinant IgE = test: Degradation of super-stoichiometric levels of target in HepG2 cells (Example 13, Table 31); conditions: 1 nM conjugate and 25 nM IgE for three days, (A-B)/C IgE depleted relative to conjugate, average of two replicate wells
In short: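 HepG2 cells in EMEM/10% FBS were incubated with 1 nM conjugate plus 25 nM recombinant IgE for 72 h. IgE in medium at start and end quantified by MSD/ELISA-type assay; value is molar equivalents IgE depleted per conjugate, (initial − day-3 IgE)/conjugate concentration, mean of two wells.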

| Compound | Normalized Fluorescence 3.7 nM WT [1] | Normalized Fluorescence 100 nM WT [1] | Normalized Fluorescence 100 nM ASGPR KO [2] | Normalized Fluorescence 3.7 nM [3] | Normalized Fluorescence 100 nM [3] | Normalized Fluorescence (HepG2 cells) | Normalized Fluorescence Post Wash Median Green (human IgE) | Normalized Fluorescence Precomplex Median Deep Red (human IgE) | Average Degradation (Molar equivalents) (recombinant IgE) |
| --- | --- | --- | --- | --- | --- | --- | --- | --- | --- |
| CC(=O)N[C@@H]1[C@@H](O)[C@@H](O)[C@@H](CO)O[C@@H]1c1cn(CCOCCOCCNC(=O)NCCCC(CCCNC(=O)NCCOCCOCCn2cc([C@H]3O[C@H](CO)[C@H](O)[C@H](O)[C@H]3NC(C)=O)nn2)(CCCNC(=O)NCCOCCOCCn2cc([C@H]3O[C@H](CO)[C@H](O)[C@H](O)[C@H]3NC(C)=O)nn2)NC(=O)CCOCCOCCOCCNS(=O)(=O)c2ccc(N3C(=O)C=CC3=O)cc2)nn1 [Compound 2329] | 56.3 | 201.8 | 1.1 | 11.6 | 3.0 | 40.3 | 3.0 | 3.3 | 4.7 |
| CCC[C@H]1O[C@H](CO)[C@H](O)[C@H](O)[C@H]1Nc1nccc(OCCOCCOCCNC(=O)NCCCC(CCCNC(=O)NCCOCCOCCOc2ccnc(N[C@@H]3[C@@H](O)[C@@H](O)[C@@H](CO)O[C@@H]3CCC)n2)(CCCNC(=O)NCCOCCOCCOc2ccnc(N[C@@H]3[C@@H](O)[C@@H](O)[C@@H](CO)O[C@@H]3CCC)n2)NC(=O)CCOCCOCCOCCNS(=O)(=O)c2ccc(N3C(=O)C=CC3=O)cc2)n1 [Compound 2330] | 54.5 | 166.6 | 1.1 | 8.1 | 2.4 | 42.9 | 2.9 | 3.0 | 2.8 |
| CC(=O)N[C@H]1[C@H](OCCCCC(=O)NCCCNC(=O)CCOCC(COCCC(=O)NCCCNC(=O)CCCCO[C@@H]2O[C@H](CO)[C@H](O)[C@H](O)[C@H]2NC(C)=O)(COCCC(=O)NCCCNC(=O)CCCCO[C@@H]2O[C@H](CO)[C@H](O)[C@H](O)[C@H]2NC(C)=O)NC(=O)CCCCCCCCCCC(=O)NCCN2C(=O)C=CC2=O)O[C@H](CO)[C@H](O)[C@@H]1O [Compound 2401-C] | 10.3 | 44.7 | 1.2 | 1.1 | 1.8 | 3.2 | 1.2 | 1.7 | −1.0 |
| CC(=O)N[C@H]1[C@H](OCCOCCOCCOCCNC(=O)CCOCC(COCCC(=O)NCCOCCOCCOCCO[C@@H]2O[C@H](CO)[C@H](O)[C@H](O)[C@H]2NC(C)=O)(COCCC(=O)NCCOCCOCCOCCO[C@@H]2O[C@H](CO)[C@H](O)[C@H](O)[C@H]2NC(C)=O)NC(=O)CCOCCOCCOCCOCCNC(=O)c2ccc(N3C(=O)C=CC3=O)cc2)O[C@H](CO)[C@H](O)[C@@H]1O [Compound 2402-C] | 19.6 | 84.3 | 1.3 | 2.2 | 2.1 | 10.5 | 1.6 | 2.1 | 0.7 |
